The values below come from patent US8012956B2, “Tropane compounds” (Exelixis, Inc., priority 2007, dated 2011).

One may read the IC50 as the concentration at which inhibition is half-maximal. Read a low IC50 as higher potency.

A value given as a limit tells only on which side of the number the result lay.

The target of the experiment is HSP90 (Homo sapiens, UniProt P07900). Put plainly: HSP90 inhibition (HSP90 IC50). It is filed as biochemical.
In the case of `Cc1cc(C(N)=O)c(NC2CCC2)cc1C(=O)N[C@H]1C[C@H]2CC[C@@H](C1)N2c1ccc(C(=O)C2CC2)cn1` [5-(cyclobutylamino)-N-{8-[5-(cyclopropylcarbonyl)pyridin-2-yl]-8-azabicyclo[3.2.1]oct-3-endo-yl}-2-methylbenzene-1,4-dicarboxamide], the IC50 was below 500 nM.
The result for `Cc1cc(C(=O)NC2CC3CCC(C2)N3c2ccc(C(=O)N[C@H]3CCN(C)C3)cn2)c(C)cc1C(N)=O` (stereo partly drawn) [2,5-dimethyl-N-{8-[5-({[(3S)-1-methylpyrrolidin-3-yl]amino}carbonyl)pyridin-2-yl]-8-azabicyclo[3.2.1]oct-3-endo-yl}benzene-1,4-dicarboxamide] reads below 500 nM.
`COc1ccc(CCNC(=O)c2ccc(N3[C@@H]4CC[C@H]3C[C@@H](NC(=O)c3cccc(OC)c3C)C4)nc2)cc1OC` [N-{2-[3,4-bis(methyloxy)phenyl]ethyl}-6-[3-endo-({[2-methyl-3-(methyloxy)phenyl]carbonyl}amino)-8-azabicyclo[3.2.1]oct-8-yl]pyridine-3-carboxamide]: the half-maximal inhibitory concentration (IC50) lay in the range of 2000 to 10000 nM.
The result for `CS(=O)(=O)CCNc1cc(C(=O)N[C@H]2C[C@H]3CC[C@@H](C2)N3c2ccc(C(=O)NC3CCCC3)cn2)ccc1C(N)=O` [N4-(8-{5-[(cyclopentylamino)carbonyl]pyridin-2-yl}-8-azabicyclo[3.2.1]oct-3-endo-yl)-2-{[2-(methylsulfonyl)ethyl]amino}benzene-1,4-dicarboxamide] reads below 500 nM.
`COc1cccc(C(=O)N[C@H]2C[C@H]3CC[C@@H](C2)N3c2ccc(C(N)=O)cn2)c1CC(O)CO` (stereo partly drawn) [6-[3-endo-({[2-(2,3-dihydroxypropyl)-3-(methyloxy)phenyl]carbonyl}amino)-8-azabicyclo[3.2.1]oct-8-yl]pyridine-3-carboxamide] came in with an IC50 of 2000 to 10000 nM.
The figure for `NC(=O)c1ccc(C(=O)N[C@H]2C[C@H]3CC[C@@H](C2)N3c2ccc(C(=O)C3CCCC3)cn2)cc1NCC1CC1` [N4-{8-[5-(cyclopentylcarbonyl)pyridin-2-yl]-8-azabicyclo[3.2.1]oct-3-endo-yl}-2-[(cyclopropylmethyl)amino]benzene-1,4-dicarboxamide] is 2000 to 10000 nM.
The result for `CCNc1c(C)c(C(=O)NC2CC3CCC(C2)N3c2ccc(C(=O)N[C@@H](C)c3ccc(N4CCN(C)CC4)cc3)cn2)cc(C)c1C(N)=O` (stereo partly drawn) [3-(ethylamino)-2,5-dimethyl-N1-(8-{5-[({(1S)-1-[4-(4-methylpiperazin-1-yl)phenyl]ethyl}amino)carbonyl]pyridin-2-yl}-8-azabicyclo[3.2.1]oct-3-endo-yl)benzene-1,4-dicarboxamide] reads 2000 to 10000 nM; that for `COc1cccc(C(=O)N[C@H]2C[C@H]3CC[C@@H](C2)N3c2ccc(C(=O)NCc3ccccc3Cl)cn2)c1C` [N-[(2-chlorophenyl)methyl]-6-[3-endo-({[2-methyl-3-(methyloxy)phenyl]carbonyl}amino)-8-azabicyclo[3.2.1]oct-8-yl]pyridine-3-carboxamide], below 500 nM; that for `COc1cccc(C(=O)N[C@H]2C[C@H]3CC[C@@H](C2)N3c2ccc(C(=O)NCc3ccc(F)cc3)cn2)c1C` [N-[(4-fluorophenyl)methyl]-6-[3-endo-({[2-methyl-3-(methyloxy)phenyl]carbonyl}amino)-8-azabicyclo[3.2.1]oct-8-yl]pyridine-3-carboxamide], below 500 nM.
`CCC(Nc1cc(C(=O)N[C@H]2C[C@H]3CC[C@@H](C2)N3c2ccc(C(=O)C3CC3)cn2)c(C)cc1C(N)=O)C(F)(F)F` (stereo partly drawn) [N-{8-[5-(cyclopropylcarbonyl)pyridine-2-yl]-8-azabicyclo[3.2.1]oct-3-endo-yl}-2-methyl-5-{[1-(trifluoromethyl)propyl]amino}benzene-1,4-dicarboxamide]: the IC50 was below 500 nM.
The compound `COc1ccc(Nc2cc(C(=O)N[C@H]3C[C@H]4CC[C@@H](C3)N4c3ccc(C(=O)NC4CCCC4)cn3)ccc2C(N)=O)cc1OCCN(C)C` displayed a half-maximal inhibitory concentration (IC50) below 500 nM.
The result for `COc1cccc(C(=O)NC2CC3CCC(C2)N3c2ccc(C(=O)NC3CCCNC3)cn2)c1C` (stereo not drawn) [6-[3-endo-({[2-methyl-3-(methyloxy)phenyl]carbonyl}amino)-8-azabicyclo[3.2.1]oct-8-yl]-N-piperidin-3-ylpyridine-3-carboxamide] reads 500 to 999 nM; that for `Cc1cc(C(N)=O)c(NCC(C)C)cc1C(=O)N[C@H]1C[C@H]2CC[C@@H](C1)N2c1ccc(C(=O)C2CC2)cn1` [N-{8-[5-(cyclopropylcarbonyl)pyridine-2-yl]-8-azabicyclo[3.2.1]oct-3-endo-yl}-2-methyl-5-[(2-methylpropyl)amino]benzene-1,4-dicarboxamide], below 500 nM; that for `COc1cccc(C(=O)N[C@H]2C[C@H]3CC[C@@H](C2)N3c2ccc(C(=O)NC3CCNCC3)cn2)c1C` [6-[3-endo-({[2-methyl-3-(methyloxy)phenyl]carbonyl}amino)-8-azabicyclo[3.2.1]oct-8-yl]-N-piperidin-4-ylpyridine-3-carboxamide], below 500 nM.
The result for `Cc1c(O)cccc1C(=O)NC1CC2CCC(C1)N2c1ccc(C(=O)N[C@@H](C)c2ccc(N3CCN(C)CC3)cc2)cn1` (stereo partly drawn) [6-(3-endo-{[(3-hydroxy-2-methylphenyl)carbonyl]amino}-8-azabicyclo[3.2.1]oct-8-yl)-N-{(1S)-1-[4-(4-methylpiperazin-1-yl)phenyl]ethyl}pyridine-3-carboxamide] reads below 500 nM; that for `CCCNc1cc(C(=O)N[C@H]2C[C@H]3CC[C@@H](C2)N3c2ccc(C(=O)C3CC3)cn2)c(Br)cc1C(N)=O` [2-bromo-N-{8-[5-(cyclopropylcarbonyl)pyridin-2-yl]-8-azabicyclo[3.2.1]oct-3-endo-yl}-5-(propylamino)benzene-1,4-dicarboxamide], below 500 nM.
The figure for `Cc1cc(C(N)=O)c(NC(C)C2(C)CC2)cc1C(=O)N[C@H]1C[C@H]2CC[C@@H](C1)N2c1ccc(C(=O)C2CC2)cn1` (stereo partly drawn) [N-{8-[5-(cyclopropylcarbonyl)pyridin-2-yl]-8-azabicyclo[3.2.1]oct-3-endo-yl}-2-methyl-5-{[1-(1-methylcyclopropyl)ethyl]amino}benzene-1,4-dicarboxamide] is below 500 nM.
Consider `Cc1cc(C(N)=O)c(N[C@H](C)C(C)C)cc1C(=O)NC1CC2CCC(C1)N2c1ccc(C(=O)C2CC2)cn1` (stereo partly drawn) [N-{8-[5-(cyclopropylcarbonyl)pyridin-2-yl]-8-azabicyclo[3.2.1]oct-3-endo-yl}-5-{[(1R)-1,2-dimethylpropyl]amino}-2-methylbenzene-1,4-dicarboxamide], for which the IC50 was below 500 nM.
As for `Cc1cc(C(N)=O)c(NC(C2CC2)C2CC2)cc1C(=O)NC1CC2CCC(C1)N2c1ccc(C(=O)C2CC2)cn1` (stereo not drawn) [N-{8-[5-(cyclopropylcarbonyl)pyridin-2-yl]-8-azabicyclo[3.2.1]oct-3-endo-yl}-5-[(dicyclopropylmethyl)amino]-2-methylbenzene-1,4-dicarboxamide], the IC50 is below 500 nM.
In turn, `CCCCNC(=O)c1ccc(N2[C@@H]3CC[C@H]2C[C@@H](NC(=O)c2cccc(OC)c2C)C3)nc1` [N-butyl-6-[3-endo-({[2-methyl-3-(methyloxy)phenyl]carbonyl}amino)-8-azabicyclo[3.2.1]oct-8-yl]pyridine-3-carboxamide] registered an IC50 of 500 to 999 nM.
For `COc1cccc(CNC(=O)c2ccc(N3[C@@H]4CC[C@H]3C[C@@H](NC(=O)c3cccc(OC)c3C)C4)nc2)c1` [6-[3-endo-({[2-methyl-3-(methyloxy)phenyl]carbonyl}amino)-8-azabicyclo[3.2.1]oct-8-yl]-N-{[3-(methyloxy)phenyl]methyl}pyridine-3-carboxamide], the 50% inhibitory concentration (IC50) fell in the range of 2000 to 10000 nM.
In turn, `CCN1CC[C@H](NC(=O)c2ccc(N3C4CCC3CC(NC(=O)c3cc(C)c(C(N)=O)cc3C)C4)nc2)C1` (stereo partly drawn) [N-{8-[5-({[(3S)-1-ethylpyrrolidin-3-yl]amino}carbonyl)pyridin-2-yl]-8-azabicyclo[3.2.1]oct-3-endo-yl}-2,5-dimethylbenzene-1,4-dicarboxamide] returned a 50% inhibitory concentration (IC50) below 500 nM.
With `COc1cccc(C(=O)N[C@H]2C[C@H]3CC[C@@H](C2)N3c2ccc(C(=O)NCc3cc(F)c(F)cc3F)cn2)c1C` [6-[3-endo-({[2-methyl-3-(methyloxy)phenyl]carbonyl}amino)-8-azabicyclo[3.2.1]oct-8-yl]-N-[(2,4,5-trifluorophenyl)methyl]pyridine-3-carboxamide], the IC50 fell in the range of 500 to 999 nM.
The figure for `CC(C)C(=O)c1ccc(N2[C@@H]3CC[C@H]2C[C@@H](NC(=O)c2ccc(C(N)=O)c(NCC4CC4)c2)C3)nc1` is 1000 to 2000 nM; for `CNC(=O)c1ccc(N2[C@@H]3CC[C@H]2C[C@@H](NC(=O)c2cccc(OC)c2C)C3)nc1` [N-methyl-6-[3-endo-({[2-methyl-3-(methyloxy)phenyl]carbonyl}amino)-8-azabicyclo[3.2.1]oct-8-yl]pyridine-3-carboxamide] it is 1000 to 2000 nM; for “N-{8-[5-(cyclopropylcarbonyl)pyridin- 2-yl]-8-azabicyclo[3.2.1]oct-3-endo- yl}-5-[(1-ethylpropyl)amino]-2- methylbenzene-1,4-dicarboxamide” it is below 500 nM.
The result for `NC(=O)c1ccc(C(=O)N[C@H]2C[C@H]3CC[C@@H](C2)N3c2ccc(C(N)=O)cn2)cc1` [N-{8-[5-(aminocarbonyl)pyridin-2-yl]-8-azabicyclo[3.2.1]oct-3-endo-yl}benzene-1,4-dicarboxamide] reads 1000 to 2000 nM; that for `Cc1cc(C(N)=O)c(NC(C)C(F)F)cc1C(=O)N[C@H]1C[C@H]2CC[C@@H](C1)N2c1ccc(C(=O)C2CC2)cn1` (stereo partly drawn) [N-{8-[5-(cyclopropylcarbonyl)pyridin-2-yl]-8-azabicyclo[3.2.1]oct-3-endo-yl}-5-[(2,2-difluoro-1-methylethyl)amino]-2-methylbenzene-1,4-dicarboxamide], below 500 nM.
The figure for `NC(=O)c1ccc(N2[C@@H]3CC[C@H]2C[C@@H](NC(=O)c2ccc(C(N)=O)c(OCCN4CCOCC4)c2)C3)nc1` [N4-{8-[5-(aminocarbonyl)pyridin-2-yl]-8-azabicyclo[3.2.1]oct-3-endo-yl}-2-[(2-morpholin-4-ylethyl)oxybenzene-1,4-dicarboxylate] is 1000 to 2000 nM.
